Measurements reported in patent US11590109B2 (priority 2016, dated 2023).

Key:
H1N1 (influenza virus) [1] = details: H1N1 in host cell MDCK
H3N2 (influenza virus) [2] = details: H3N2 in host cell MDCK
H1N1 (influenza virus) [3] = experiment: microbe, parasite or virus in culture; details: Influenza A virus, H1N1, MDCK
in vitro [4] = details: dog
H3N2 (influenza virus) [5] = experiment: microbe, parasite or virus in culture; details: Influenza A virus, H3N2, MDCK
H7N9 (influenza virus) = experiment: microbe, parasite or virus in culture; details: Influenza A virus, H7N9, MDCK
[6] = test system: EV71 (hand-foot-and-mouth virus); details: EV71 in host cell RD
[7] = Determination of TC50 (half toxicity concentration) in RD cells; format: cell-based; details: human, host cell RD, EV71 table
[8] = test system: EV71 (hand-foot-and-mouth virus); experiment: microbe, parasite or virus in culture; details: Enterovirus A
Zika Virus = experiment: Inhibition of viral replication (CPE) at cellular level, Zika Virus in Vero
in vitro [9] = details: African green monkey, TC50, host cell Vero
[10] = test system: Dengue Virus 2 (type 2 dengue virus); experiment: Inhibition of viral replication (CPE) at cellular level, Dengue Virus 2 in Vero; format: cell-based; details: Dengue Virus 2 in host cell Vero
Description: Activity Test for Inhibition of Viral Replication at Cellular Level […]
The present inventors tested inhibitory effects of the compound of the present invention on cytopathic effects (CPE) caused by viral infection on mammalian cells.
Half-inhibitory concentration IC50 and half toxic concentration TC50 of the compound against Dengue Virus 2 (type 2 dengue virus) in host cell Vero (African green monkey kidney cell).

[11] = test system: RSV (human respiratory syncytial virus); experiment: Inhibition of viral replication (CPE) at cellular level, RSV in Vero
[12] = TC50, host cell MDCK, H1N1 table
[13] = TC50, host cell MDCK, H3N2 table

SMILES	SI (TC50/IC50) (H1N1 (influenza virus) [1])	SI (TC50/IC50) (H3N2 (influenza virus) [2])	IC50 (H1N1 (influenza virus) [3]; H1N1 in host cell MDCK, CPE) [µM]	CC50 (in vitro [4]; [12]) [µM]	CC50 (in vitro [4]; [13]) [µM]	IC50 (H3N2 (influenza virus) [5]; H3N2 in host cell MDCK, CPE) [µM]	other results
Cc1sc(N(C)/N=C/c2ccccc2C(=O)O)nc1-c1ccccc1Cl [Compound 13]	1.3	3.27	65	87	373	114	–
O=C(O)c1c(F)cccc1/C=N/Nc1nc(-c2ccccc2Cl)cs1 [Compound 58, (E)-2-((2-(4-(2-chlorophenyl)thiazol-2-yl)hydrazono)methyl)-6-fluorobenzoic Acid]	45	–	5.6	254	–	365	–
CCCN(/N=C/c1ccccc1C(=O)O)c1nc(-c2ccccc2Cl)cs1 [Compound 3, (E)-4-(2-chlorophenyl)-2-[1-propyl-2-(2-carboxybenzylidene)hydrazino]thiazole]	7	2.08	12.3	86	52	25	–
Cc1ccc(-c2csc(N/N=C/c3ccccc3C(=O)O)n2)cc1 [Compound 54, (E)-2-((2-(4-(p-tolyl)thiazol-2-yl)hydrazono)methyl)benzoic Acid]	–	–	112	–	–	326	–
CC(C)N(/N=C/c1ccccc1C(=O)O)c1nc(-c2ccccc2Cl)cs1 [Compound 4, (E)-4-(2-chlorophenyl)-2-[1-isopropyl-2-(2-carboxybenzylidene)hydrazino]thiazole]	8.8	0.31	2.6	23	35	112	–
CN(/N=C/c1cc(O)c(F)cc1C(=O)O)c1nc(-c2ccccc2Cl)cs1 [Compound 24]	–	–	325	–	–	152	–
CN(/N=C/c1cc(N)c(F)cc1C(=O)O)c1nc(-c2ccccc2Cl)cs1 [Compound 25]	–	–	485	–	–	742	–
CN(/N=C/c1ccccc1C(=O)O)c1nc(-c2cc(Cl)ccc2Cl)cs1 [Compound 19, (E)-4-(2,5-dichlorophenyl)-2-[1-methyl-2-(2-carboxybenzylidene)hydrazino]thiazole]	46	47.8	0.56	26	43	0.9	–
CN(/N=C/c1ccccc1C(=O)O)c1nc(-c2cccc(Cl)c2)cs1 [Compound 21, (E)-4-(3-chlorophenyl)-2-[1-methyl-2-(2-carboxybenzylidene)hydrazino]thiazole]	7.6	19.6	5.4	41	49	2.5	–
NC(=O)c1cccc(-c2csc(N/N=C/c3ccccc3C(=O)O)n2)c1 [Compound 53, (E)-2-((2-(4-(3-aminoformylphenyl)thiazol-2-yl)hydrazono)methyl)benzoic Acid]	–	–	781	–	–	216	–
Cc1sc(N/N=C/c2ccccc2C(=O)O)nc1-c1ccccc1Cl [Compound 15, (E)-5-methyl-4-(2-chlorophenyl)-2-(2-carboxylbenzylidenehydrazino)thiazole]	3.3	–	124	412	88	351	–
Cc1sc(N/N=C/c2ccccc2C(=O)O)nc1-c1ccccc1 [Compound 17, (E)-5-methyl-4-phenyl-2-(2-carboxylbenzylidenehydrazino)thiazole]	7	62.6	8.1	561	94	1.5	–
O=C(O)c1ccccc1/C=N/Nc1nc(-c2cc(Cl)ccc2Cl)cs1 [Compound 55, (E)-2-((2-(4-(2,5-dichlorophenyl)thiazol-2-yl)hydrazono)methyl)benzoic Acid]	50	45.6	–	–	–	–	IC50 (H7N9 (influenza virus)): 6.9 µM; SI (TC50/IC50) [6]: 6; CC50 [7]: 3.1 µM; IC50 [8]: 0.51 µM; SI (TC50/IC50) (Zika Virus; Zika Virus in host cell Vero): 206; IC50 (Zika Virus; Zika virus, Vero): 0.33 µM; CC50 (in vitro [9]; Dengue Virus 2 table): 69 µM; CC50 (in vitro [9]; RSV table): 154 µM; CC50 (in vitro [9]; Zika Virus table): 68 µM; SI (TC50/IC50) [10]: 110; IC50 ([10]; CPE): 0.63 µM; IC50 (H1N1 (influenza virus) [3]): 8.2 µM; SI (TC50/IC50) ([11]; RSV in host cell Vero): 19; IC50 ([11]; human respiratory syncytial virus, Vero): 8.2 µM; CC50 (in vitro [4]; TC50): 547 µM; IC50 (H3N2 (influenza virus) [5]): 12 µM
CCCC(C)N(/N=C/c1ccccc1C(=O)O)c1nc(-c2ccccc2Cl)c(C)s1 (stereo not drawn) [Compound 22, (E)-5-methyl-4-(2-chlorophenyl)-2-[1-(2-amyl)-2-(2-carboxybenzylidene)hydrazino]thiazole]	2.7	1.6	55	148	415	248	–
Cc1ccc(/C=N/N(C)c2nc(-c3ccccc3)c(C)s2)c(C(=O)O)c1 [Compound 11, (E)-5-methyl-4-phenyl-2-[1-methyl-2-(4-methyl-2-carboxybenzylidene)hydrazino]thiazole]	47	2.72	5.1	241	234	86	IC50 (H7N9 (influenza virus)): 14 µM; CC50 (in vitro [4]; TC50): 54 µM
O=C(O)c1ccccc1/C=N/Nc1nc(-c2ccc(-c3ccccc3)cc2)cs1 [Compound 57, (E)-2-((2-(4-(biphenyl-4-yl)thiazol-2-yl)hydrazono)methyl)benzoic Acid]	–	–	1290	–	–	4430	–
CCC(C)N(/N=C/c1ccccc1C(=O)O)c1nc(-c2ccccc2Cl)cs1 (stereo not drawn) [Compound 5, (E)-4-(2-chlorophenyl)-2-[1-(2-butyl)-2-(2-carboxybenzylidene)hydrazino]thiazole]	1.3	0.37	52	68	89	243	–
CCCC(C)N(/N=C/c1ccccc1C(=O)O)c1nc(-c2ccccc2Cl)cs1 (stereo not drawn) [Compound 6, (E)-4-(2-chlorophenyl)-2-[1-(2-amyl)-2-(2-carboxybenzylidene)hydrazino]thiazole]	2	0.18	124	451	97	554	–
CN(/N=C/c1ccccc1C(=O)O)c1nc(-c2ccccc2)cs1 [Compound 20, (E)-4-phenyl-2-[1-methyl-2-(2-carboxybenzylidene)hydrazino]thiazole]	22.8	11	2.5	57	57	5.2	–
COc1cccc(-c2csc(N/N=C/c3ccccc3C(=O)O)n2)c1 [Compound 52, (E)-2-((2-(4-(3-methoxyphenyl)thiazol-2-yl)hydrazono)methyl)benzoic Acid]	–	–	1240	–	–	147	–
O=C(O)c1ccccc1/C=N/Nc1nc(-c2ccc3ccccc3c2)cs1 [Compound 56, (E)-2-((2-(4-(naphthalen-2-yl)thiazol-2-yl)hydrazono)methyl)benzoic Acid]	–	–	2310	–	–	549	–
O=C(O)c1ccccc1/C=N/Nc1nc(-c2ccccc2)cs1 [Compound 18, (E)-4-phenyl-2-(2-carboxybenzylidenehydrazino)thiazole]	12	3.3	10.2	124	148	45	–
CCc1sc(N/N=C/c2ccccc2C(=O)O)nc1-c1ccccc1Cl [Compound 14, (E)-5-ethyl-4-(2-chlorophenyl)-2-(2-carboxylbenzylidenehydrazino)thiazole]	2.1	0.16	41	88	91	550	–
CN(/N=C/c1cc(F)c(F)cc1C(=O)O)c1nc(-c2ccccc2Cl)cs1 [Compound 23]	223	–	0.39	87	–	–	IC50 (H7N9 (influenza virus)): 0.35 µM; CC50 (in vitro [4]; TC50): 54 µM
O=C(O)c1ccccc1/C=N/N(CCO)c1nc(-c2ccccc2Cl)cs1 [Compound 7]	1.6	0.5	221	355	124	248	–
